Values quoted from earlier work in patent US20090274673A1, “COMPOSITION FOR TOPICAL TREATMENT OF ACNE” (priority 2008, published 2009).

Key:
[1] = system: species of Fusarium, Gerlacia, Penicillium, and Aspergillus
protein synthesis = settings: prokaryotes versus eukaryotes
Candida albicans = settings: against Candida albicans (a yeast-like fungus)
Proteus vulgaris = settings: agar plate diffusion
[2] = system: Staphylococcus epidermidis; settings: against Staphylococcus epidermidis
Bacillus thuringiensis = settings: agar plate diffusion
Staphylococcus aureus = settings: agar plate diffusion
Saccharomyces cerevisiae = settings: against Saccharomyces cerevisiae
[3] = system: hyper-permeable strains of Escherichia coli SC10909 and BAS847; settings: agar plate diffusion; hyper-permeable E. coli SC10909 and BAS847
HIV = settings: virus incubated with zinc acetate

For Iturin A, the growth inhibition [1] is given as “inhibits the growth”.
In the case of `C/C(=C/C=C/C=C/C(C)C(=O)O)NC(=O)CC(O)\C(C)=C/C=C\C=C(C)\C=C\C=C/C=C/CNC(=O)C(O)CC(C)C` (centres unmarked) [bacillaene], the “selectivity of protein synthesis inhibition” value (protein synthesis) is listed as “inhibiting protein synthesis only in prokaryotes and not in eukaryotes”, the inhibitory effect (Candida albicans) is listed as “ineffective” and the inhibitory effect (Proteus vulgaris) is listed as “moderately potent”. The inhibitory effect [2] was “ineffective”, the inhibitory effect (Bacillus thuringiensis) was “moderately potent” and the growth inhibition (Streptomyces avermitilis) was “inhibit the growth”. The inhibitory effect (Staphylococcus aureus) was “moderately potent”, the inhibitory effect (Saccharomyces cerevisiae) was “ineffective” and the inhibitory effect [3] was “potent”.
For `CC(=O)[O-].CC(=O)[O-].[Zn+2]` [zinc acetate], the HIV infectivity (HIV) is given as “reduced”.
